The source of these data is patent US9115169B2, “Method of treating tumors” (Lytix Biopharma AS, priority 2000, dated 2015).

Converted amounts (≈) assume the structure as drawn. Where a SMILES comes first, the peptide text is derived from it.

Assay [1] has as its system fresh human red blood cells. Type of assay: cell-based. The method, then:
The hemolytic activities of the peptides were determined using fresh human red blood cells. 8 ml blood was taken from a healthy person. 4 ml blood was transferred to a polycarbonate tube containing heparin to a final concentration of 10 U/ml, and the remaining 4 ml blood was transferred to a glass tube containing EDTA with final concentration of 15% EDTA. The erythrocytes were isolated from heparin-treated blood by centrifugation in 1500 rpm for 10 min and washed three times with phosphate-buffered saline (PBS) to remove plasma and buffy coat. The cell pellet was resuspended in PBS to make the final volume of 4 ml. The peptide was diluted to a concentration of 2 mg/ml and 0.1 mg/ml. The peptide was further diluted to the concentrations as stated in Table 15. For each tube PBS was added first, then RBCs and peptide solutions. The hematocrit in the blood treated with EDTA was determined after 30 min with Sysmex K-1000, and the resuspended RBCS were diluted into 10% hematocrit. RBCs in PBS (1%) with and without peptides (Table 15) were incubated in a shaker at 37° for 1 hour and then centrifuged at 4000 rpm for 5 min. The supernatant were carefully transferred to new polycarbonate tubes and the absorbance of the supernatant was measured at 540 nm. […]

For assay [2], the system named is Escherichia coli ATCC 25922. As to conditions: ATCC 25922.
Assay [3] relates to Staphylococcus aureus ATCC 25923. The note with it: ATCC 25923.
For assay [4] the test system is unchanged. As to conditions: ATCC 25923. The source holds these as a separate data set.
For assay [5], the system named is Escherichia coli ATCC 25922. As to conditions: for MBC E. coli: ATCC 25922; for bacteriostatic or bactericidal: in respect of E. coli, high MBC but low MIC indicates bacteriostatic.
In a further assay the test system is MRSE ATCC 27626. The note with it: ATCC 27626.
The subject of the next assay is MRSA ATCC 33591. As to conditions: ATCC 33591.
In another assay the test system is E. coli. Description: Electronmicrograph of treated bacteria. Type of assay: cell-based. As to conditions: FIG. 2. An excerpt: FIG. 1 is an electronmicrograph of normal (untreated) E. coli, and
FIG. 2 is an electronmicrograph of E. coli treated with one of the peptides described herein, WRWRWR [SEQ ID NO:1].

Description for MRSA ATCC 33591: (§1) All strains were stored at −70° C. […] All assays were performed in duplicate.
Description for MRSE ATCC 27626: as §1

In the case of `COC(=O)[C@H](CCCNC(=N)N)NC(=O)[C@H](Cc1c(C(C)(C)C)[nH]c2c(C(C)(C)C)cc(C(C)(C)C)cc12)NC(=O)[C@@H](N)CCCNC(=N)N` [RTbtR OMe, H-Arg-Tbt-Arg-OMe], the “haemolysis EC50” value in assay [1] came to 720 mg/L. In assay [2], the “MIC E. coli” value is 25 mg/L (≈ 35.8 µM). The “MIC S. aureus” value in assay [3] is listed as 5 (5) μg/ml. Besides, in assay [4], the “MBC S. aureus” value was 5 (5) μg/ml. Besides, in assay [5], the “MBC E. coli” value is 50 mg/L (≈ 71.5 µM) and the bacteriostatic or bactericidal result was “bactericidal”.

In the case of `COC(=O)[C@H](CCCNC(=N)N)NC(=O)[C@@H](N)Cc1c(C(C)(C)C)[nH]c2c(C(C)(C)C)cc(C(C)(C)C)cc12` [TbtR OMe, H-Tbt-Arg-OMe], in the assay with MRSE ATCC 27626, the “MIC MRSE” value was 4.0 mg/L (≈ 7.37 µM). The “haemolysis EC50” value in assay [1] turned out to be 360 mg/L. In addition, the “MIC MRSA” value against MRSA ATCC 33591 was determined as 4.0 mg/L (≈ 7.37 µM). For the same compound, in assay [4], the “MBC S. aureus” value is recorded as 10 (10) μg/ml. Also, in assay [5], the “MBC E. coli” value amounted to 200 mg/L (≈ 368 µM) and the bacteriostatic or bactericidal result is “bacteriostatic”.

Take `N=C(N)NCCC[C@H](NC(=O)[C@H](Cc1c[nH]c2ccccc12)NC(=O)[C@H](CCCNC(=N)N)NC(=O)[C@H](Cc1c[nH]c2ccccc12)NC(=O)[C@H](CCCNC(=N)N)NC(=O)[C@@H](N)Cc1c[nH]c2ccccc12)C(N)=O` [WRWRWR] (H-WRWRWR-NH2): the “MIC E. coli” value in assay [2] is 7.5 mg/L (≈ 7.18 µM). In addition, the “MIC S. aureus” value in assay [3] is 7.5 µg/mL (≈ 7.18 µM). Also, in assay [4], the “MBC S. aureus” value was 10 µg/mL (≈ 9.58 µM). The “MBC E. coli” value in assay [5] was 15 mg/L (≈ 14.4 µM). Besides, the “appearance of treated E. coli in electronmicrograph” value with E. coli was “void of cytoplasmic matter and their cell membranes (as well as cell wall components) are destroyed”.
